System: AGS cells (KRAS^G12D)
Test: Detection of cell proliferation in vitro by MTT/MTS method (cell activity experiment)
Type: cell-based
Conditions: AGS cells; MTT/MTS; 3 days of drug treatment; read-out: AGS IC50
How it was run: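 KRAS G12D AGS cells seeded at 1000 per well, compound added 24 h later, 0.5% final DMSO. Viability read after 3 days of treatment by MTT (solubilised in DMSO) or MTS, 4 h, absorbance 490 nm. IC50 from dose–response curves versus DMSO control.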

| Structure (SMILES) | IC50 |
| --- | --- |
| C#Cc1c(F)ccc2cc(O)cc(-c3ccc4c(N5C[C@H]6CC[C@@H](C5)[C@@H]6O)nc(OC[C@@]56CCCN5C[C@H](F)C6)nc4c3F)c12 [Example 118, (1R,5S,8R)-3-(7-(8-ethynyl-7-fluoro-3-hydroxynaphthalen-1-yl)-8-fluoro-2-(((2R,7aS)-2-fluorotetrahydro-1H-pyrrolizin-7a(5H)-yl)methoxy)quinazolin-4-yl)-3-azabicyclo [3.2.1]octan-8-ol] | > 2500 nM |

Same assay, conditions: Homo sapiens, AGS, 72 h, AGS cells; MTT/MTS; 3 days of drug treatment; read-out: AGS IC50

| Structure (SMILES) | IC50 |
| --- | --- |
| CCc1c(F)ccc2cc(O)cc(-c3ccc4c(N5C[C@H]6CC[C@@H](C5)N6)nc(OC[C@@]56CCCN5C[C@H](F)C6)nc4c3F)c12 [Example 92, 4-(4-((1R,5S)-3,8-diazabicyclo[3.2.1]octan-3-yl)-8-fluoro-2-(((2R,7aS)-2-fluorotetrahydro-1H-pyrrolizin-7a(5H)-yl)methoxy)quinazolin-7-yl)-5-ethyl-6-fluoronaphthalen-2-ol] | 2.7 nM |
| CCC1CCCc2cc(O)cc(-c3ncc4c(NCC5(N(C)C)CCC5)nc(OC[C@@]56CCCN5C[C@H](F)C6)nc4c3F)c21 (stereo partly drawn) [Example 422, 4-(4-(((1-(dimethylamino)cyclobutyl)methyl)amino)-8-fluoro-2-(((2R,7aS)-2-fluorotetrahydro-1H-pyrrolizin-7a(5H)-yl)methoxy)pyrido[4,3-d]pyrimidin-7-yl)-5-ethyl-5,6,7,8-tetrahydronaphthalen-2-ol] | 35 nM |
| C#Cc1cccc2cc(O)cc(-c3ccc4c(N5C[C@H]6CC[C@@H](C5)N6)nc(OC[C@@]56CCCN5C[C@H](F)C6)nc4n3)c12 [Example 144, 4-(4-((1R,5S)-3,8-diazabicyclo[3.2.1]octan-3-yl)-2-(((2R,7aS)-2-fluorotetrahydro-1H-pyrrolizin-7a(5H)-yl)methoxy)pyrido[2,3-d]pyrimidin-7-yl)-5-ethynylnaphthalen-2-ol] | > 2500 nM |
| Nc1cc(-c2ncc3c(N4C[C@H]5CC[C@@H](C4)N5)nc(OC[C@@]45CCCN4C[C@H](F)C5)nc3c2F)c2ccccc2c1 [Example 42, 4-(4-((1R,5S)-3,8-diazabicyclo[3.2.1]octan-3-yl)-8-fluoro-2-(((2R,7aS)-2-fluorotetrahydro-1H-pyrrolizin-7a(5H)-yl)methoxy)pyrido[4,3-d]pyrimidin-7-yl) naphthalen-2-amine] | 109 nM |
| Oc1cc2c(c(-c3ncc4c(N5C[C@H]6CC[C@@H](C5)N6)nc(OC[C@@]56CCCN5C[C@H](F)C6)nc4c3F)c1)C(F)CCC2 (stereo partly drawn) [Example 272, 4-(4-((1R,5S)-3,8-diazabicyclo[3.2.1]octan-3-yl)-8-fluoro-2-(((2R,7aS)-2-fluorotetrahydro-1H-pyrrolizin-7a(5H)-yl)methoxy)pyrido[4,3-d]pyrimidin-7-yl)-5-fluoro-5,6,7,8-tetrahydronaphthalen-2-ol] | 70 nM |
| Oc1cc(O)c2c(C#Cc3ccc4c(N5C[C@H]6CC[C@@H](C5)N6)nc(OC[C@@]56CCCN5C[C@H](F)C6)nc4c3F)c(F)ccc2c1 [Example 366, 8-((4-((1R,5S)-3,8-diazabicyclo[3.2.1]octan-3-yl)-8-fluoro-2-(((2R,7aS)-2-fluorotetrahydro-1H-pyrrolizin-7a(5H)-yl)methoxy)quinazolin-7-yl)ethynyl)-7-fluoronaphthalene-1,3-diol] | 2100 nM |
| O=C1CCc2cc(O)cc(-c3ccc4c(N5C[C@H]6CC[C@@H](C5)N6)nc(OC[C@@]56CCCN5C[C@H](F)C6)nc4c3F)c21 [Example 297, 7-(4-((1R,5S)-3,8-diazabicyclo[3.2.1]octan-3-yl)-8-fluoro-2-(((2R,7aS)-2-fluorotetrahydro-1H-pyrrolizin-7a(5H)-yl)methoxy)quinazolin-7-yl)-5-hydroxy-2,3-dihydro-1H-inden-1-one] | > 2500 nM |
| C#Cc1c(F)ccc2cc(O)cc(-c3ncc4c(N5CC6CCNC6C5)nc(OC[C@@]56CCCN5C[C@H](F)C6)nc4c3F)c12 (stereo partly drawn) [Example 54, 5-ethynyl-6-fluoro-4-(8-fluoro-2-(((2R,7aS)-2-fluorotetrahydro-1H-pyrrolizin-7a(5H)-yl)methoxy)-4-(hexahydropyrrolo[3,4-b]pyrrol-5(1H)-yl)pyrido [4,3-d]pyrimidin-7-yl) naphthalen-2-ol] | > 2500 nM |
| C#Cc1c(F)ccc2cc(O)cc(-c3ncc4c(-c5ccn(C(=O)CO)c5)nc(OC[C@@]56CCCN5C[C@H](F)C6)nc4c3F)c12 [Example 86, 1-(3-(7-(8-ethynyl-7-fluoro-3-hydroxynaphthalen-1-yl)-8-fluoro-2-(((2R, 7aS)-2-fluorotetrahydro-1H-pyrrolizin-7a(5H)-yl)methoxy)pyrido[4,3-d]pyrimidin-4-yl)-1H-pyrrol-1-yl)-2-hydroxyethan-1-one] | > 10000 nM |
| C#Cc1c(F)ccc2cc(O)cc(-c3ccc4c(N5CC(C(N)=O)C5)nc(OC[C@@]56CCCN5C[C@H](F)C6)nc4c3F)c12 [Example 215, 1-(7-(8-ethynyl-7-fluoro-3-hydroxynaphthalen-1-yl)-8-fluoro-2-(((2R,7aS)-2-fluorotetrahydro-1H-pyrrolizin-7a(5H)-yl)methoxy)quinazolin-4-yl)azetidine-3-carboxamide] | > 2500 nM |
| CCC1CCc2cc(O)cc(-c3ccc4c(N5C[C@H]6CC[C@@H](C5)N6)nc(OC[C@@]56CCCN5C[C@H](F)C6)nc4c3F)c21 (stereo partly drawn) [Example 283, 7-(4-((1R,5S)-3,8-diazabicyclo[3.2.1]octan-3-yl)-8-fluoro-2-(((2R,7aS)-2-fluorotetrahydro-1H-pyrrolizin-7a(5H)-yl)methoxy)quinazolin-7-yl)-1-ethyl-2,3-dihydro-1H-inden-5-ol] | 14 nM |
| O=C1CCCc2cc(O)cc(-c3ccc4c(N5C[C@H]6CC[C@@H](C5)N6)nc(OC[C@@]56CCCN5C[C@H](F)C6)nc4c3F)c21 [Example 296, 8-(4-((1R,5S)-3,8-diazabicyclo[3.2.1]octan-3-yl)-8-fluoro-2-(((2R,7aS)-2-fluorotetrahydro-1H-pyrrolizin-7a(5H)-yl)methoxy)quinazolin-7-yl)-6-hydroxy-3,4-dihydronaphthalen-1(2H)-one] | > 2500 nM |
| C#Cc1c(F)ccc2cc(O)cc(-c3ncc4c(N5CC(C#N)C5)nc(OC[C@@]56CCCN5C[C@H](F)C6)nc4c3F)c12 [Example 69, 1-(7-(8-ethynyl-7-fluoro-3-hydroxynaphthalen-1-yl)-8-fluoro-2-(((2R, 7aS)-2-fluorotetrahydro-1H-pyrrolizin-7a(5H)-yl)methoxy)pyrido[4,3-d]pyrimidin-4-yl) azetidine-3-carbonitrile] | 411 nM |
| Oc1ccc2c(C#Cc3ncc4c(N5C[C@H]6CC[C@@H](C5)N6)nc(OC[C@@]56CCCN5C[C@H](F)C6)nc4c3F)c(F)ccc2c1 [Example 368, 5-((4-((1R,5S)-3,8-diazabicyclo[3.2.1]octan-3-yl)-8-fluoro-2-(((2R,7aS)-2-fluorotetrahydro-1H-pyrrolizin-7a(5H)-yl)methoxy)pyrido[4,3-d]pyrimidin-7-yl)ethynyl)-6-fluoronaphthalen-2-ol] | 55 nM |
| CCc1cccc2cc(O)cc(-c3ncc4c(N5C[C@H]6CC[C@@H](C5)N6)c(C#N)c(OC[C@@]56CCCN5C[C@H](F)C6)nc4c3F)c12 [Example 190, 4-((1R,5S)-3,8-diazabicyclo[3.2.1]octan-3-yl)-7-(8-ethyl-3-hydroxynaphthalen-1-yl)-8-fluoro-2-(((2R,7aS)-2-fluorotetrahydro-1H-pyrrolizin-7a(5H)-yl)methoxy)-1,6-naphthyridine-3-carbonitrile] | 150 nM |
| Oc1cc(-c2c3c(c4c(N5C[C@H]6CC[C@@H](C5)N6)nc(OC[C@@]56CCCN5C[C@H](F)C6)nc4c2F)CCC3)c2c(F)c(F)ccc2c1 [Example 380, 4-(1-((1R,5S)-3,8-diazabicyclo[3.2.1]octan-3-yl)-5-fluoro-3-(((2R,7aS)-2-fluorotetrahydro-1H-pyrrolizin-7a(5H)-yl)methoxy)-8,9-dihydro-7H-cyclopenta[f]quinazolin-6-yl)-5,6-difluoronaphthalen-2-ol] | 95 nM |
| CCCC1CCc2cc(O)cc(-c3ncc4c(N5C[C@H]6CC[C@@H](C5)N6)nc(OC[C@@]56CCCN5C[C@H](F)C6)nc4c3F)c21 (stereo partly drawn) [Example 242, 7-(4-((1R,5S)-3,8-diazabicyclo[3.2.1]octan-3-yl)-8-fluoro-2-(((2R,7aS)-2-fluorotetrahydro-1H-pyrrolizin-7a(5H)-yl)methoxy)pyrido[4,3-d]pyrimidin-7-yl)-1-propyl-2,3-dihydro-1H-inden-5-ol] | 34 nM |
| [O-][S+]1CCCc2cc(O)cc(-c3ncc4c(N5C[C@H]6CC[C@@H](C5)N6)nc(OC[C@@]56CCCN5C[C@H](F)C6)nc4c3F)c21 (stereo partly drawn) [Example 251, 8-(4-((1R,5S)-3,8-diazabicyclo[3.2.1]octan-3-yl)-8-fluoro-2-(((2R,7aS)-2-fluorotetrahydro-1H-pyrrolizin-7a(5H)-yl)methoxy)pyrido[4,3-d]pyrimidin-7-yl)-6-hydroxythiochromane 1-oxide] | > 2500 nM |
| CCc1cccc2cc(O)cc(-c3ccc4c(N5C[C@H]6CC[C@@H](C5)N6)nc(OC[C@@]56CCCN5C[C@H](F)C6)nc4c3F)c12 [Example 93, 4-(4-((1R,5S)-3,8-diazabicyclo[3.2.1]octan-3-yl)-8-fluoro-2-(((2R,7aS)-2-fluorotetrahydro-1H-pyrrolizin-7a(5H)-yl)methoxy)quinazolin-7-yl)-5-ethylnaphthalen-2-ol] | 10.1 nM |
| C#Cc1cccc2cc(O)cc(-c3ccc4c(N5C[C@H]6CC[C@@H](C5)N6)c(C#N)c(OC[C@@]56CCCN5C[C@H](F)C6)nc4c3)c12 [Example 173, 4-((1R,5S)-3,8-diazabicyclo[3.2.1]octan-3-yl)-7-(8-ethynyl-3-hydroxynaphthalen-1-yl)-2-(((2R,7aS)-2-fluorotetrahydro-1H-pyrrolizin-7a(5H)-yl)methoxy)quinoline-3-carbonitrile] | 1450 nM |

From patent US20240300980A1, “HETEROCYCLIC COMPOUNDS AS KRAS INHIBITOR, AND PREPARATION THEREFOR AND USE THEREOF IN TREATMENT” (SHANGHAI KECHOW PHARMA, INC., priority 2021, published 2024)
